# According to US12054495B2, “Substituted macrocyclic compounds and related methods of treatment” (Alkermes, Inc., priority 2019, dated 2024):
# Experiments:
# [1] = Hepatocytes stability assay (human hepatocytes); assay type: in vitro ADME; conditions: both sexes, cryopreserved hepatocytes, 1 μM test compound, 1×10^6 cell/mL, 37 degrees C, read-out: CLint (μL/min/million cells)
# Method in brief: (§1)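 Cryopreserved pooled (50 donors, mixed gender) human hepatocytes at 1×10^6 cells/mL in Krebs-Henseleit buffer with 1 μM compound (0.1% DMSO), 37 degrees C, sampled 0–240 min. Parent depletion by LC-MS/MS; first-order fit gave T1/2 and CLint, scaled to hepatic clearance via well-stirred model (fu assumed 1); extraction ratio = CL,hep/liver blood flow.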
# [2] = tested on: human hepatocytes; assay: Hepatocytes stability assay (human hepatocytes); assay type: in vitro ADME; conditions: scaled hepatic clearance divided by liver blood flow, fu assumed unity
# Method in brief: as §1
hepatocyte CLint at 1 μM [1] [µL/min/1e6 cells],Extraction Ratio (ER) [2],Compound
12,0.64,CS(=O)(=O)N[C@@H]1CCCN2C(=O)COc3cccc(F)c3[C@H]3CC[C@H](CC3)OC[C@H]12 (racemic) [Compound 49]
51,0.88,"COC(=O)N1CCC[C@H](NS(C)(=O)=O)[C@@H]1CO[C@H]1CC[C@@H](c2ccccc2)CC1 [methyl (2R,3S)-3-((methylsulfonyl)amino)-2-(((cis-4-phenylcyclohexyl)oxy)methyl)-piperidine-1-carboxylate, reference compound]"
